Target: T1, recombinant human GST-SYK (Homo sapiens, UniProt P43405)
T1 construct: purchased Carna Biosciences 08-176
Experiment: Homogeneous Time-Resolved Fluorescence (HTRF) assay for the recombinant human SYK enzyme
Format: biochemical
Conditions: recombinant human GST-SYK 5 pM, ATP 25 μM, 10-dose titration; read-out: rhSYK Activity (IC50)
Protocol: Homogeneous Time-Resolved Fluorescence (HTRF) Assay for the Recombinant Human SYK Enzyme:
A recombinant GST-hSYK fusion protein was used to measure potency of compounds to inhibit human SYK activity. The recombinant human GST-SYK (Carna Biosciences #08-176) (5 pM final concentration) was incubated with various concentrations of the inhibitor diluted in DMSO (0.1% final concentration) for 10 minutes at room temperature in 15 mM Tris-HCl (pH 7.5), 0.01% tween 20, 2 mM DTT in 384 well plate format. To initiate the reaction the biotinylated substrate peptide (250 nM final concentration) that contains the phosphorylation site for SYK was added with magnesium (5 mM final concentration) and ATP (25 μM final concentration). Final volume of the reaction was 10 μL. Phosphorylation of the peptide was allowed to proceed for 45′ at room temperature. To quench the reaction and detect the phosphorylated product, 2 nM of a Europium-atiti-phosphotyrosine antibody (Perkin Elmer #AD0161) and 70 nM SA-APC (Perkin-Elmer #CR130-100) were added together in 15 mM Tris pH 7.5, 40 mM EDTA, 0.01% tween 20. Final volume of the quenching solution was 10 μL. The resulting HTRF signal was measured after 30 minutes on a EnVision (Perkin-Elmer) reader using a time-resolved fluorescence protocol.

SMILES | IC50
Cc1cc(Nc2nccc(C(F)(F)F)n2)cc(-c2cnc(NCC(O)C(F)F)s2)c1 (centres unmarked) [Example 95] | ≤ 100 nM
Cc1cc(Nc2nccc(C(F)(F)F)n2)cc(-c2cnc(N3CCN4CCCC4C3)s2)c1 (centres unmarked) [Example 172] | ≤ 100 nM
NC(=O)C1CCN(c2ncc(-c3cccc(Nc4nccc(C(F)(F)F)n4)c3)s2)CC1 [Example 191, 1-[5-(3-{[4-(trifluoromethyl)pyrimidin-2-yl]amino}phenyl)-1,3-thiazol-2-yl]piperidine-4-carboxamide] | ≤ 100 nM
OCC1CCCCN1c1ncc(-c2cccc(Nc3nccc(C(F)(F)F)n3)c2)s1 (centres unmarked) [Example 132] | ≤ 100 nM
OCCNc1ncc(-c2cccc(Nc3nccc(C(F)(F)F)n3)c2)s1 [Example 2] | ≤ 100 nM
CC1(O)CN(c2ncc(-c3cccc(Nc4nccc(C(F)(F)F)n4)c3)s2)C1 [Example 154] | ≤ 100 nM
CCSc1ccnc(Nc2cc(C)cc(-c3cnc(N4CCCNC(=O)C4)s3)c2)n1 [Example 221] | ≤ 100 nM
O=C1CCCN1CCNc1ncc(-c2cccc(Nc3nccc(C(F)(F)F)n3)c2)s1 [Example 51] | ≤ 100 nM
CN(CCO)c1ncc(-c2cccc(Nc3nccc(C(F)(F)F)n3)c2)s1 [Example 4] | ≤ 100 nM
Cc1cc(Nc2ncc(Cl)c(C)n2)cc(-c2cnc(N3CCCNC(=O)C3)s2)c1 [Example 211, 4-(5-{3-[(5-Chloro-4-methylpyrimidin-2-yl)amino]-5-methylphenyl}-1,3-thiazol-2-yl)-1,4-diazepan-2-one] | ≤ 100 nM
CN(Cc1ccccc1)c1ncc(-c2cccc(Nc3nccc(C(F)(F)F)n3)c2)s1 [Example 48] | 100 to 1000 nM
Cc1cc(Nc2ncc(F)cn2)cc(-c2cnc(N3CCCNC(=O)C3)s2)c1 [Example 201] | ≤ 100 nM
CCCCSc1ccnc(Nc2cc(C)cc(-c3cnc(N4CCCNC(=O)C4)s3)c2)n1 [Example 217, 4-[5-(3-{[4-(butylsulfanyl)pyrimidin-2-yl]amino}-5-methyphenyl)-1,3-thiazol-2-yl]-1,4-diazepan-2-one] | ≤ 100 nM
Cc1cc(Nc2nccc(C(F)(F)F)n2)cc(-c2cnc(NCCc3cscn3)s2)c1 [Example 110] | ≤ 100 nM
FC(F)(F)c1ccnc(Nc2cccc(-c3cnc(NCc4cccc(-n5cccn5)c4)s3)c2)n1 [Example 76] | ≤ 100 nM
CC(C)C(CO)Nc1ncc(-c2cccc(Nc3nccc(C(F)(F)F)n3)c2)s1 (centres unmarked) [Example 20] | ≤ 100 nM
CNc1ncc(-c2cccc(Nc3nccc(C(F)(F)F)n3)c2)s1 [Example 21] | ≤ 100 nM
CCCCN(CCO)c1ncc(-c2cccc(Nc3nccc(C(F)(F)F)n3)c2)s1 [Example 6] | ≤ 100 nM
Nc1ncc(-c2cccc(Nc3nccc(C(F)(F)F)n3)c2)s1 [Example 181, N-[3-(2-amino-1,3-thiazol-5-yl)phenyl]-4-(trifluoromethyl)pyrimidin-2-amine] | ≤ 100 nM
CC1C(=O)NCCN1c1ncc(-c2cccc(Nc3nccc(C(F)(F)F)n3)c2)s1 (centres unmarked) [Example 124] | ≤ 100 nM
FC(F)(F)c1ccnc(Nc2cccc(-c3cnc(N4CCC(n5cc(-c6ccccc6)nn5)CC4)s3)c2)n1 [Example 137] | 100 to 1000 nM
Cc1cc(Nc2nccc(C3CCC3)n2)cc(-c2cnc(N3CCCNC(=O)C3)s2)c1 [Example 195] | ≤ 100 nM
OCCC1CCN(c2ncc(-c3cccc(Nc4nccc(C(F)(F)F)n4)c3)s2)CC1 [Example 141] | ≤ 100 nM
CN1CCC(CNc2ncc(-c3cccc(Nc4nccc(C(F)(F)F)n4)c3)s2)C1 (centres unmarked) [Example 53] | ≤ 100 nM
CCC(CO)Nc1ncc(-c2cc(C)cc(Nc3nccc(C(F)(F)F)n3)c2)s1 (centres unmarked) [Example 84] | ≤ 100 nM
Cc1cc(Nc2nccc(C(F)(F)F)n2)cc(-c2cnc(N3CCn4cncc4C3)s2)c1 [Example 174] | ≤ 100 nM
OC1CCCN(c2ncc(-c3cccc(Nc4nccc(C(F)(F)F)n4)c3)s2)C1 (centres unmarked) [Example 131] | ≤ 100 nM
OC1(CCNc2ncc(-c3cccc(Nc4nccc(C(F)(F)F)n4)c3)s2)CCCC1 [Example 17] | ≤ 100 nM
Cc1cc(Nc2nccc(C(F)(F)F)n2)cc(-c2cnc(N3CCOC3=O)s2)c1 [Example 180] | ≤ 100 nM
